Assay results from EP3262036B1, “THERAPEUTIC PYRIDAZINE COMPOUNDS AND USES THEREOF” (priority 2015, dated 2016).
pIC50: −log10 of the molar value.

Columns and labels:
Test in all cases: biochemical
[1] = target: BRM (Isoform 2) Bromodomain (Homo sapiens, UniProt P51531)
Excerpt: IC50 measurements for inhibitors using BRM SM TR-FRET Binding Assay

[2] = target: Polybromodomain-1 BromoDomain-5 (PB1-BD5) (Homo sapiens, UniProt Q86U86)
Excerpt: IC50 measurements for inhibitors using Polybromodomain-1 BromoDomain-5 (PB1-BD5) SM TR-FRET Binding Assay

BRG1 = BRG1 (Homo sapiens, UniProt P51532); assay type: binding; settings: BRG1 HTRF IC50 (µM)
Excerpt: IC50 measurements for inhibitors using BRG1 TR-FRET Binding Assay

Sequence of Polybromodomain-1 BromoDomain-5 (PB1-BD5) (Q86U86 645-766): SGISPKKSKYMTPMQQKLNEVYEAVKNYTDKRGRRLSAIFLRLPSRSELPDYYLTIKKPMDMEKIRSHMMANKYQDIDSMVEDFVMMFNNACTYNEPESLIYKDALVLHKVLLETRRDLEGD
Sequence of BRM (Isoform 2) Bromodomain (P51531 1377-1486 isoform P51531-2): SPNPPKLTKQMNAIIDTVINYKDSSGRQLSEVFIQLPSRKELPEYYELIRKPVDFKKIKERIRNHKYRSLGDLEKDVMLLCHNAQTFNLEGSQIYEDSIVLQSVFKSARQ
Sequence of BRG1 (P51532 1448-1575): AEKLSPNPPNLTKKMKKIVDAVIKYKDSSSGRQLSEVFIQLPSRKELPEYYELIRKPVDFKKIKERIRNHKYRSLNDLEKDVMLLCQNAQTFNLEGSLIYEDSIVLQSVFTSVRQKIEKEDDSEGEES

SMILES | pIC50 [1] | pIC50 [2] | IC50 (BRG1) [µM]
CC(=O)N1CCN(c2cc(-c3ccccc3O)nnc2N)CC1 [Example 4, 1-(4-(3-amino-6-(2-hydroxyphenyl)pyridazin-4-yl)piperazin-1-yl)ethan-1-one] | 7.14 | 7.61 | 0.0659
Nc1nnc(-c2ccccc2O)cc1OCCc1ccccc1 [Example 174, 2-(6-amino-5-phenethoxypyridazin-3-yl)phenol] | 7.72 | 8.06 | 0.0148
CC(Oc1cc(-c2ccccc2O)nnc1N)C1CCOCC1 (stereo not drawn) [Example 168, 2-(6-amino-5-(1-(tetrahydro-2H-pyran-4-yl)ethoxy)pyridazin-3-yl)phenol] | 6.71 | 6.95 | 0.169
Nc1nnc(-c2ccccc2O)cc1OC1CCN(Cc2ccccc2)C1 (stereo not drawn) [Example 180, 2-(6-amino-5-((1-benzylpyrrolidin-3-yl)oxy)pyridazin-3-yl)phenol] | 7.22 | 7.36 | 0.0432
CC(COc1cc(-c2ccccc2O)nnc1N)c1ccccc1 (stereo not drawn) [Example 178, 2-(6-amino-5-(2-phenylpropoxy)pyridazin-3-yl)phenol] | 8.14 | 8.28 | 0.0122
Nc1nnc(-c2ccccc2O)cc1N1CCOCC1 [Example 45, 2-(6-amino-5-morpholinopyridazin-3-yl)phenol] | 7.15 | 7.68 | 0.101
Nc1nnc(-c2ccccc2O)cc1C1CCCC1 [Example 210, 2-(6-amino-5-cyclopentylpyridazin-3-yl)phenol] | 7.60 | 7.83 | 0.0239
Nc1nnc(-c2ccccc2O)cc1N1C[C@H]2CN(Cc3ccccc3)C[C@H]2C1 [Example 9, 2-(6-amino-5-((3aR,6aS)-5-benzylhexahydropyrrolo[3,4-c]pyrrol-2(1H)-yl)pyridazin-3-yl)phenol] | 7.32 | 7.74 | 0.0615
Nc1nnc(-c2ccccc2O)cc1C1CCN(S(=O)(=O)c2ccccc2)C1 (stereo not drawn) [Example 217, 2-(6-amino-5-(1-(phenylsulfonyl)pyrrolidin-3-yl)pyridazin-3-yl)phenol] | 6.33 | 6.57 | 0.412
CN(C)CCOc1cc(-c2ccccc2O)nnc1N [Example 173, 2-(6-amino-5-(2-(dimethylamino)ethoxy)pyridazin-3-yl)phenol] | 6.56 | 6.59 | 0.263
CNc1ccc(-c2ccccc2O)nn1 [Example 204, 2-(6-(methylamino)pyridazin-3-yl)phenol] | 5.98 | 6.46 | 0.893
CC1CN(c2cc(-c3ccccc3O)nnc2N)CCN1C(=O)C(C)(C)C (stereo not drawn) [Example 129, 1-(4-(3-amino-6-(2-hydroxyphenyl)pyridazin-4-yl)-2-methylpiperazin-1-yl)-2,2-dimethylpropan-1-one] | 7.74 | 8.17 | 0.0104
CC(Cc1ccccc1)Oc1cc(-c2ccccc2O)nnc1N (stereo not drawn) [Example 177, 2-(6-amino-5-((1-phenylpropan-2-yl)oxy)pyridazin-3-yl)phenol] | 7.03 | 7.53 | 0.1
Nc1nnc(-c2ccccc2O)cc1N1CC2CCC(C1)N2Cc1ccccc1 [Example 16, 2-(6-amino-5-(8-benzyl-3,8-diazabicyclo[3.2.1]octan-3-yl)pyridazin-3-yl)phenol] | 7.10 | 7.29 | 0.0563
